{"source": "ChEMBL document CHEMBL3044649", "about": "“Zn(OTf)2-catalyzed three component, one-pot cyclocondensation reaction of some new octahydroquinazolinone derivatives and access their bio-potential” (2012)", "data": [{"tested_on": "Aspergillus fumigatus", "assay": "Antimicrobial activity against Aspergillus fumigatus MTCC 3008 after 24 to 48 hr by broth microdilution method", "format": "functional", "units": {"MIC": "µg/mL"}, "values": [{"compound": "COc1ccc2[nH]c(=O)c(C3NC(=O)NC4=C3C(=O)CC(C)(C)C4)cc2c1", "note": "(configuration not stated)", "MIC": 1000}, {"compound": "CC1(C)CC(=O)C2=C(C1)NC(=S)NC2c1cc2ccccc2[nH]c1=O", "note": "(configuration not stated)", "MIC": 500}, {"compound": "O=C1CCCC2=C1C(c1cc3ccccc3[nH]c1=O)NC(=S)N2c1ccccc1", "note": "(configuration not stated)", "MIC": 250}]}, {"tested_on": "Escherichia coli", "assay": "Antimicrobial activity against Escherichia coli MTCC 443 after 24 to 48 hr by broth microdilution method", "format": "functional", "units": {"MIC": "µg/mL"}, "values": [{"compound": "O=C(O)c1cn(C2CC2)c2cc(N3CCNCC3)c(F)cc2c1=O", "note": "[CIPROFLOXACIN]", "MIC": 25}, {"compound": "O=C(N[C@H](CO)[C@H](O)c1ccc([N+](=O)[O-])cc1)C(Cl)Cl", "note": "[CHLORAMPHENICOL]", "MIC": 50}, {"compound": "GENTAMICIN", "MIC": 0.05}, {"compound": "CCn1cc(C(=O)O)c(=O)c2cc(F)c(N3CCNCC3)cc21", "note": "[NORFLOXACIN]", "MIC": 10}, {"compound": "CC1(C)S[C@@H]2[C@H](NC(=O)[C@H](N)c3ccccc3)C(=O)N2[C@H]1C(=O)O", "note": "[AMPICILLIN]", "MIC": 100}, {"compound": "COc1ccc2[nH]c(=O)c(C3NC(=O)NC4=C3C(=O)CC(C)(C)C4)cc2c1", "note": "(configuration not stated)", "MIC": 100}, {"compound": "CC1(C)CC(=O)C2=C(C1)NC(=S)NC2c1cc2ccccc2[nH]c1=O", "note": "(configuration not stated)", "MIC": 125}, {"compound": "O=C1CCCC2=C1C(c1cc3ccccc3[nH]c1=O)NC(=S)N2c1ccccc1", "note": "(configuration not stated)", "MIC": 150}]}, {"tested_on": "Vibrio cholerae", "assay": "Antimicrobial activity against Vibrio cholerae MTCC 3906 after 24 to 48 hr by broth microdilution method", "format": "functional", "units": {"MIC": "µg/mL"}, "values": [{"compound": "O=C(O)c1cn(C2CC2)c2cc(N3CCNCC3)c(F)cc2c1=O", "note": "[CIPROFLOXACIN]", "MIC": 25}, {"compound": "O=C(N[C@H](CO)[C@H](O)c1ccc([N+](=O)[O-])cc1)C(Cl)Cl", "note": "[CHLORAMPHENICOL]", "MIC": 50}, {"compound": "GENTAMICIN", "MIC": 5}, {"compound": "CCn1cc(C(=O)O)c(=O)c2cc(F)c(N3CCNCC3)cc21", "note": "[NORFLOXACIN]", "MIC": 10}, {"compound": "CC1(C)S[C@@H]2[C@H](NC(=O)[C@H](N)c3ccccc3)C(=O)N2[C@H]1C(=O)O", "note": "[AMPICILLIN]", "MIC": 100}, {"compound": "COc1ccc2[nH]c(=O)c(C3NC(=O)NC4=C3C(=O)CC(C)(C)C4)cc2c1", "note": "(configuration not stated)", "MIC": 50}, {"compound": "CC1(C)CC(=O)C2=C(C1)NC(=S)NC2c1cc2ccccc2[nH]c1=O", "note": "(configuration not stated)", "MIC": 500}, {"compound": "O=C1CCCC2=C1C(c1cc3ccccc3[nH]c1=O)NC(=S)N2c1ccccc1", "note": "(configuration not stated)", "MIC": 200}]}, {"tested_on": "Clostridium tetani", "assay": "Antimicrobial activity against Clostridium tetani MTCC 449 after 24 to 48 hr by broth microdilution method", "format": "functional", "units": {"MIC": "µg/mL"}, "values": [{"compound": "O=C(N[C@H](CO)[C@H](O)c1ccc([N+](=O)[O-])cc1)C(Cl)Cl", "note": "[CHLORAMPHENICOL]", "MIC": 50}, {"compound": "GENTAMICIN", "MIC": 5}, {"compound": "CCn1cc(C(=O)O)c(=O)c2cc(F)c(N3CCNCC3)cc21", "note": "[NORFLOXACIN]", "MIC": 50}, {"compound": "CC1(C)S[C@@H]2[C@H](NC(=O)[C@H](N)c3ccccc3)C(=O)N2[C@H]1C(=O)O", "note": "[AMPICILLIN]", "MIC": 250}, {"compound": "COc1ccc2[nH]c(=O)c(C3NC(=O)NC4=C3C(=O)CC(C)(C)C4)cc2c1", "note": "(configuration not stated)", "MIC": 100}, {"compound": "CC1(C)CC(=O)C2=C(C1)NC(=S)NC2c1cc2ccccc2[nH]c1=O", "note": "(configuration not stated)", "MIC": 500}, {"compound": "O=C1CCCC2=C1C(c1cc3ccccc3[nH]c1=O)NC(=S)N2c1ccccc1", "note": "(configuration not stated)", "MIC": 100}]}, {"tested_on": "Candida albicans", "assay": "Antimicrobial activity against Candida albicans MTCC 227 after 24 to 48 hr by broth microdilution method", "format": "functional", "units": {"MIC": "µg/mL"}, "values": [{"compound": "COc1ccc2[nH]c(=O)c(C3NC(=O)NC4=C3C(=O)CC(C)(C)C4)cc2c1", "note": "(configuration not stated)", "MIC": 500}, {"compound": "CC1(C)CC(=O)C2=C(C1)NC(=S)NC2c1cc2ccccc2[nH]c1=O", "note": "(configuration not stated)", "MIC": 500}, {"compound": "O=C1CCCC2=C1C(c1cc3ccccc3[nH]c1=O)NC(=S)N2c1ccccc1", "note": "(configuration not stated)", "MIC": 500}]}, {"tested_on": "Bacillus subtilis", "assay": "Antimicrobial activity against Bacillus subtilis MTCC 441 after 24 to 48 hr by broth microdilution method", "format": "functional", "units": {"MIC": "µg/mL"}, "values": [{"compound": "O=C(N[C@H](CO)[C@H](O)c1ccc([N+](=O)[O-])cc1)C(Cl)Cl", "note": "[CHLORAMPHENICOL]", "MIC": 50}, {"compound": "GENTAMICIN", "MIC": 1}, {"compound": "CCn1cc(C(=O)O)c(=O)c2cc(F)c(N3CCNCC3)cc21", "note": "[NORFLOXACIN]", "MIC": 100}, {"compound": "CC1(C)S[C@@H]2[C@H](NC(=O)[C@H](N)c3ccccc3)C(=O)N2[C@H]1C(=O)O", "note": "[AMPICILLIN]", "MIC": 250}, {"compound": "COc1ccc2[nH]c(=O)c(C3NC(=O)NC4=C3C(=O)CC(C)(C)C4)cc2c1", "note": "(configuration not stated)", "MIC": 250}, {"compound": "CC1(C)CC(=O)C2=C(C1)NC(=S)NC2c1cc2ccccc2[nH]c1=O", "note": "(configuration not stated)", "MIC": 500}, {"compound": "O=C1CCCC2=C1C(c1cc3ccccc3[nH]c1=O)NC(=S)N2c1ccccc1", "note": "(configuration not stated)", "MIC": 250}]}, {"tested_on": "Salmonella typhi", "assay": "Antimicrobial activity against Salmonella enterica subsp. enterica serovar Typhi MTCC 98 after 24 to 48 hr by broth microdilution method", "format": "functional", "units": {"MIC": "µg/mL"}, "values": [{"compound": "O=C(O)c1cn(C2CC2)c2cc(N3CCNCC3)c(F)cc2c1=O", "note": "[CIPROFLOXACIN]", "MIC": 25}, {"compound": "O=C(N[C@H](CO)[C@H](O)c1ccc([N+](=O)[O-])cc1)C(Cl)Cl", "note": "[CHLORAMPHENICOL]", "MIC": 50}, {"compound": "GENTAMICIN", "MIC": 5}, {"compound": "CCn1cc(C(=O)O)c(=O)c2cc(F)c(N3CCNCC3)cc21", "note": "[NORFLOXACIN]", "MIC": 10}, {"compound": "CC1(C)S[C@@H]2[C@H](NC(=O)[C@H](N)c3ccccc3)C(=O)N2[C@H]1C(=O)O", "note": "[AMPICILLIN]", "MIC": 100}, {"compound": "COc1ccc2[nH]c(=O)c(C3NC(=O)NC4=C3C(=O)CC(C)(C)C4)cc2c1", "note": "(configuration not stated)", "MIC": 150}, {"compound": "CC1(C)CC(=O)C2=C(C1)NC(=S)NC2c1cc2ccccc2[nH]c1=O", "note": "(configuration not stated)", "MIC": 150}, {"compound": "O=C1CCCC2=C1C(c1cc3ccccc3[nH]c1=O)NC(=S)N2c1ccccc1", "note": "(configuration not stated)", "MIC": 100}]}, {"tested_on": "Streptococcus pneumoniae", "assay": "Antimicrobial activity against Streptococcus pneumoniae MTCC 1936 after 24 to 48 hr by broth microdilution method", "format": "functional", "units": {"MIC": "µg/mL"}, "values": [{"compound": "O=C(O)c1cn(C2CC2)c2cc(N3CCNCC3)c(F)cc2c1=O", "note": "[CIPROFLOXACIN]", "MIC": 50}, {"compound": "O=C(N[C@H](CO)[C@H](O)c1ccc([N+](=O)[O-])cc1)C(Cl)Cl", "note": "[CHLORAMPHENICOL]", "MIC": 50}, {"compound": "GENTAMICIN", "MIC": 0.5}, {"compound": "CCn1cc(C(=O)O)c(=O)c2cc(F)c(N3CCNCC3)cc21", "note": "[NORFLOXACIN]", "MIC": 10}, {"compound": "CC1(C)S[C@@H]2[C@H](NC(=O)[C@H](N)c3ccccc3)C(=O)N2[C@H]1C(=O)O", "note": "[AMPICILLIN]", "MIC": 100}, {"compound": "COc1ccc2[nH]c(=O)c(C3NC(=O)NC4=C3C(=O)CC(C)(C)C4)cc2c1", "note": "(configuration not stated)", "MIC": 250}, {"compound": "CC1(C)CC(=O)C2=C(C1)NC(=S)NC2c1cc2ccccc2[nH]c1=O", "note": "(configuration not stated)", "MIC": 500}, {"compound": "O=C1CCCC2=C1C(c1cc3ccccc3[nH]c1=O)NC(=S)N2c1ccccc1", "note": "(configuration not stated)", "MIC": 150}]}]}
